Source: ChEMBL document CHEMBL1147271, “New cytotoxic metabolites from a marine sponge Homaxinella sp” (2004)
In brackets after ≈: the same amount, converted by molar mass.

How the values were obtained:
Format in all cases: functional
Conditions in all cases: read-out: ED50 (the source's name)
[1] = tested on: HCT-15; assay: Cytotoxicity against human HCT15 cells
[2] = tested on: SK-OV-3; assay: Cytotoxicity against human SKOV3 cells
[3] = tested on: A549; assay: Cytotoxicity against human A549 cells
[4] = tested on: SK-MEL-2; assay: Cytotoxicity against human SK-MEL-2 cells
[5] = tested on: XF498; assay: Cytotoxicity against human XF498 cells

Row | SMILES | EC50 [1] [µg/mL] | EC50 [2] [µg/mL] | EC50 [3] [µg/mL] | EC50 [4] [µg/mL] | EC50 [5] [µg/mL]
1 | CCCCC/C=C\C/C=C\C/C=C\C[C@@]1(O)C=CC(=O)C1 | 2.9 (≈ 10.1 µM) | 4.4 (≈ 15.3 µM) | 5.4 (≈ 18.7 µM) | 2.6 (≈ 9.01 µM) | 4.9 (≈ 17 µM)
2 | CCCCC/C=C\C/C=C\C/C=C\CO | 25.5 (≈ 122 µM) | 19.8 (≈ 95 µM) | > 30 | 74.1 (≈ 356 µM) | 30 (≈ 144 µM)
3 | COc1cccc2c1C(=O)c1c(O)c3c(c(O)c1C2=O)C[C@@](O)(C(=O)CO)C[C@@H]3O[C@H]1C[C@H](N)[C@H](O)[C@H](C)O1 [DOXORUBICIN] | 0.17 (≈ 0.313 µM) | 0.24 (≈ 0.442 µM) | 0.07 (≈ 0.129 µM) | 0.12 (≈ 0.221 µM) | 0.12 (≈ 0.221 µM)
4 | CCCCC/C=C\C/C=C\C/C=C\C[C@@]1(OC)C=CC(=O)O1 [HOMAXINOLIDE A] | 8.9 (≈ 29.2 µM) | 16.1 (≈ 52.9 µM) | 10.1 (≈ 33.2 µM) | 2.7 (≈ 8.87 µM) | 9.9 (≈ 32.5 µM)
5 | CC/C=C\C/C=C\C/C=C\C/C=C\C[C@]1(OC)C=CC(=O)O1 [HOMAXINOLIDE B] | 17.5 (≈ 57.9 µM) | > 30 | 32.1 (≈ 106 µM) | 4.5 (≈ 14.9 µM) | > 30
6 | CC/C=C/C/C=C\C/C=C\C/C=C\C[C@@]1(OC)C=CC(=O)O1 [HOMAXINOLIDE C] | 34.8 (≈ 115 µM) | > 30 | > 30 | 14.9 (≈ 49.3 µM) | > 30
